Assay results: patent US20150265682A1, “THERAPEUTIC METHODS AND COMPOSITIONS FOR TREATING DIABETES” (Orient Europharma Co., Ltd., priority 2014, published 2015)

What was measured:
Assay type in all cases: in vivo, ICR mice
[1] = system: IR, Akt and GLUT2 in liver of T1DM mice; test: Western blot of IR-related signaling mediators in liver after 7-day borapetoside C, alone or with insulin
Description: T1DM mice were induced by a known method. In brief, an intraperitoneal injection of streptozotocin (STZ; Sigma Chemical Co.; St. Louis, Mo.) at 150 mg/kg was performed in mice that were fasted for 48 h. The induction of T1DM was assessed and confirmed when the mice had plasma glucose levels ≧350 mg/dL, accompanied with polyuria, hyperphagia and decreased body weight. The control mice group received an injection of vehicle and then carried out for 4 weeks. T2DM mice were induced by maintaining on a fat-rich chow diet and fructose-sweetened water for 4 weeks from the age of 4-5 weeks according to previous methods. The induction T2DM mice were assessed by measuring fasting plasma glucose levels and confirmed when plasma glucose level was ≧150 mg/dL after a 4-week induction.
After treatment, the mice were sacrificed by cervical dislocation under anesthesia.
The liver was immediately frozen in liquid nitrogen. The liver tissue was preserved at −80° C. before they were used for further assays.
Tissues were homogenized in T-PER® Tissue Protein Extraction Reagent (Pierce Biotechnology, Rockford, Ill.) with Halt™ Protease Inhibitor Single-Use Cocktail (Pierce Biotechnology, Rockford, Ill.). Liver homogenates were prepared by mechanical homogenization (Polytron PT3100, Luzernerstrasse, Switzerland). After centrifuging the homogenates at 10,000 g for 30 min, the supernatants were collected and frozen at −80° C. for further use. The protein concentrations were determined by using a BCA Protein Assay Kit (Pierce Biotechnology, Rockford, Ill.). For western blot analysis, about 60 μg of protein preparations were applied on 10% sodium dodecyl sulfate-polyacrylamide gel electrophoresis and then transferred to polyvinylidene difluoride membranes (Millipore, Billerica, Mass.). The membranes were blocked with 5% (w/v) non-fat dry milk in phosphate buffered saline (PBS) containing 0.1% Tween 20 (PBS-T). After blocking, the blotted membrane was incubated with anti-phospho-insulin receptor β (IRβ) (Tyr^1345), phospho-Akt (Ser^473) (Cell Signaling Technology, Beverly, Mass.), anti-IRβ, Akt, β-Actin (Santa Cruz Biotechnology, Santa Cruz, Calif.), and anti-GLUT2 antibodies (Abcam, Cambridge, UK) in presence of 3% bovine serum albumin (BSA) in PBS-T buffer. Following the incubation, the membranes were washed 3 times with PBS-T for 15 min each and then incubated with the appropriate peroxidase-conjugated secondary antibodies (Santa Cruz. Biotechnology, USA) in PBS-T. After removal of the secondary antibody, blots were washed and developed using the enhanced chemiluminescenece (ECL) western blotting system (Millipore, Billerica, Mass.). The density of the protein bands were quantified using ImageQuant.

[2] = system: normal, T1DM and T2DM mice; test: Plasma insulin levels before and after treatment
Description: (§1) The 4-week-old male ICR mice were purchased from the Animal Center of the College of Medicine, National Taiwan University (Taipei, Taiwan) with delicate humane care. This animal study was conducted by following the University ethical guidelines and the ‘Guide for the Care and Use of Laboratory Animals’ published by the US National Institutes of Health (NIH publication no. 85-23, revised 1996). The animal experiments were approved by the Institutional Animal Care and Use Committee (IACUC) of the National Taiwan University (IACUC No. 20110073). Animals were housed in a room at the constant temperature, 22±1° C., with 12 hours light and dark cycles.
(§2) After three days of acclimatization, the mice had free access to a standard rodent chow (normal mice), a standard rodent chow after single […] streptozotocin (STZ) intraperitoneal injection (T1DM mice), and a fat-rich chow diet and fructose-sweetened water (T2DM mice) for 4 weeks. The induction of Type 1 DM was assessed and confirmed when the mice had plasma glucose levels ≧350 mgdL^−1, accompanied with polyuria, hyperphagia and decreased body weight. The induction Type 2 DM in the mice was assessed by measuring fasting plasma glucose levels and confirmed when plasma glucose level was ≧150 mgdL^−1 after the 4-week induction. The animals were assigned randomly into three groups, with seven animals in each group. In group I, the mice were treated with vehicle, 2% DMSO in normal saline, as the negative control. In group II, the mice were intraperitoneally treated with borapetoside A (0.1-10 mgkg^−1). In group Ill, the positive control, the mice received intraperitoneally metformin (300 mgkg^−1; Sigma Chemical Co., St. Louis, Mo., U.S.A.) or insulin (0.5 IUkg^−1; Insulin Actrapid® HM; Novo Nordisk, Denmark). In the acute study, mice under anesthesia received a single intraperitoneal administration of borapetoside A, negative control, or positive control. In the subacute study, mice received intraperitoneal administrations of borapetoside A, vehicle, or insulin twice a day for seven days.
(§3) Blood samples were collected from the orbital vascular plexus of the mice under anesthesia. Blood samples were then centrifuged at 13000 rpm for 5 min, and the plasma samples were collected and kept on ice prior to the assay. The plasma glucose concentration was measured by Glucose Kit Reagent (Biosystems S. A., Barcelona, Spain) following the manufacturer's instructions, and the insulin levels were estimated using mouse insulin ELISA kit (Mercodia AB, Uppsala, Sweden).

[3] = system: normal mice, mice with type 1 DM, mice with type 2 DM; test: Plasma glucose after single intraperitoneal borapetoside A (acute study); details: 60 min; for dose giving significant decrease of plasma glucose level: single i.p.
Description: as §1
as §2, with “In group Ill, the positive control, the mice received intraperitoneally metformin (300 mgkg^−1; Sigma Chemical Co., St. Louis, Mo., U.S.A.) or insulin (0.5 IUkg^−1; Insulin Actrapid® HM; Novo Nordisk, Denmark). In the acute study, mice under anesthesia received a single intraperitoneal administration of borapetoside A, negative control, or positive control. In the subacute study, mice received intraperitoneal administrations of borapetoside A, vehicle, or insulin twice a day for seven days.” left out
as §3, with “Blood samples were then centrifuged at 13000 rpm for 5 min, and the plasma samples were collected and kept on ice prior to the assay.” left out

[4] = borapetoside C 0.1 mg/kg twice daily, alone or with insulin 1.0 IU/kg twice daily
[5] = borapetoside C 5.0 mg/kg vs insulin 0.5 IU/kg twice daily

SMILES: COC(=O)C1=CCC[C@H]2[C@]3(C)C[C@@H](c4ccoc4)OC(=O)[C@@H]3C[C@@H](O[C@@H]3O[C@H](CO)[C@@H](O)[C@H](O)[C@H]3O)[C@@]12C [Borapetoside C, borapetoside C]
- expression of GLUT2 in liver ([1]; 5.0 mg/kg twice daily): increased
- level of phosphorylated Akt in liver ([1]; 5.0 mg/kg twice daily): increased
- level of phosphorylated IR in liver ([1]; 5.0 mg/kg twice daily): increased
- GLUT2 in liver vs vehicle-treated [1, 4]: not significantly increased
- serine phosphorylation of Akt in liver vs vehicle-treated [1, 4]: not significantly increased
- tyrosine phosphorylation of IR in liver vs vehicle-treated [1, 4]: not significantly increased
- phosphorylation of Akt and GLUT2 expression compared with the effect of insulin [1, 5]: less phosphorylation of Akt and GLUT2 expression
- phosphorylation of IR compared with the effect of insulin [1, 5]: more phosphorylation of IR

SMILES: C[C@@]12C[C@@H](c3ccoc3)OC(=O)[C@@H]1C[C@@H]1OC(=O)[C@@]3(O)[C@@H](O[C@@H]4O[C@H](CO)[C@@H](O)[C@H](O)[C@H]4O)CC[C@@H]2[C@@]13C [Borapetoside A, borapetoside A]
- Plasma insulin Before-treatment ([2]; Normal mice, 0.1 mg kg^−1 group): 61.0 ± 4.6 pmol/L
- Plasma insulin After-treatment ([2]; Normal mice, 0.1 mg kg^−1 i.p.): 68.3 ± 4.4 pmol/L
- Plasma insulin Before-treatment ([2]; Normal mice, 0.3 mg kg^−1 group): 63.4 ± 3.9 pmol/L
- Plasma insulin After-treatment ([2]; Normal mice, 0.3 mg kg^−1 i.p.): 129.4 ± 22.0 pmol/L
- Plasma insulin Before-treatment ([2]; Normal mice, 1 mg kg^−1 group): 66.1 ± 5.4 pmol/L
- Plasma insulin After-treatment ([2]; Normal mice, 1 mg kg^−1 i.p.): 118.8 ± 10.1 pmol/L
- Plasma insulin Before-treatment ([2]; Normal mice, 3 mg kg^−1 group): 64.4 ± 3.6 pmol/L
- Plasma insulin After-treatment ([2]; Normal mice, 3 mg kg^−1 i.p.): 121.2 ± 14.2 pmol/L
- Plasma insulin Before-treatment ([2]; Normal mice, 10 mg kg^−1 group): 68.9 ± 1.3 pmol/L
- Plasma insulin After-treatment ([2]; Normal mice, 10 mg kg^−1 i.p.): 108.2 ± 2.9 pmol/L
- Plasma insulin Before-treatment ([2]; T1DM mice, 0.1 mg kg^−1 group): 22.9 ± 0.1 pmol/L
- Plasma insulin After-treatment ([2]; T1DM mice, 0.1 mg kg^−1 i.p.): 22.7 ± 0.2 pmol/L
- Plasma insulin Before-treatment ([2]; T1DM mice, 0.3 mg kg^−1 group): 22.9 ± 0.1 pmol/L
- Plasma insulin After-treatment ([2]; T1DM mice, 0.3 mg kg^−1 i.p.): 22.7 ± 0.3 pmol/L
- Plasma insulin Before-treatment ([2]; T1DM mice, 1 mg kg^−1 group): 23.1 ± 0.2 pmol/L
- Plasma insulin After-treatment ([2]; T1DM mice, 1 mg kg^−1 i.p.): 23.0 ± 0.2 pmol/L
- Plasma insulin Before-treatment ([2]; T1DM mice, 3 mg kg^−1 group): 23.1 ± 0.2 pmol/L
- Plasma insulin After-treatment ([2]; T1DM mice, 3 mg kg^−1 i.p.): 23.0 ± 0.0 pmol/L
- Plasma insulin Before-treatment ([2]; T1DM mice, 10 mg kg^−1 group): 23.1 ± 0.1 pmol/L
- Plasma insulin After-treatment ([2]; T1DM mice, 10 mg kg^−1 i.p.): 23.0 ± 0.1 pmol/L
- Plasma insulin Before-treatment ([2]; T2DM mice, 0.1 mg kg^−1 group): 140.5 ± 4.1 pmol/L
- Plasma insulin After-treatment ([2]; T2DM mice, 0.1 mg kg^−1 i.p.): 134.5 ± 9.3 pmol/L
- Plasma insulin Before-treatment ([2]; T2DM mice, 0.3 mg kg^−1 group): 133.0 ± 4.2 pmol/L
- Plasma insulin After-treatment ([2]; T2DM mice, 0.3 mg kg^−1 i.p.): 149.0 ± 9.5 pmol/L
- Plasma insulin Before-treatment ([2]; T2DM mice, 1 mg kg^−1 group): 126.8 ± 5.7 pmol/L
- Plasma insulin After-treatment ([2]; T2DM mice, 1 mg kg^−1 i.p.): 123.7 ± 9.6 pmol/L
- Plasma insulin Before-treatment ([2]; T2DM mice, 3 mg kg^−1 group): 138.3 ± 3.6 pmol/L
- Plasma insulin After-treatment ([2]; T2DM mice, 3 mg kg^−1 i.p.): 184.3 ± 14.6 pmol/L
- Plasma insulin Before-treatment ([2]; T2DM mice, 10 mg kg^−1 group): 134.9 ± 3.5 pmol/L
- Plasma insulin After-treatment ([2]; T2DM mice, 10 mg kg^−1 i.p.): 205.3 ± 22.2 pmol/L
- dose giving significant decrease of plasma glucose level ([3]; mice with type 2 DM): higher than 0.3 mgkg^−1
- dose giving significant decrease of plasma glucose level ([3]; normal mice): ≥ 1 mgkg^−1
- plasma glucose level ([3]; normal, type 1 DM and type 2 DM mice, 0.1-10.0 mgkg^−1 single i.p.): lowered the plasma glucose level
